From patent US9487749B2 (priority 2009, dated 2016)
Where “and” joins values, the source holds several entries; their conditions need not be identical. Identical values can stand only once.

Experiments:
[1] = test system: Acidophilus plus Bifidus milk microorganisms; test: Growth in Acidophilus plus Bifidus milk fortified with MSM; format: cell-based; conditions: A/B milk
[2] = test system: Herpes Simplex Virus type 1 (ATCC #VR-260); format: cell-based
Chlorella minutissima = test: Algal growth with MSM by percent transmittance; format: cell-based
Procedure: (§1) Two species of Chlorella were examined for growth—Chlorella sorokiniana a freshwater species and Chlorella minutissima a marine species. […] Growth was measured on day 0, 1, 2, 3, 4, 5, 6, 7, 8, 9 and 10. […] The following media were purchased from UTEX Culture Collection of Algae: Enriched Salt Water Medium and Volvox Dextrose Medium.
(§2) The algae were grown for 48 hours in the appropriate medium. The initial suspension was enumerated for each alga and is referred to as the starting inoculums. Chlorella sorokiniana was at 381 million cells per milliliter and Chlorella minutissima was at 19 million cells per milliliter. One milliliter of the algal solution was placed into 9 mLs of medium and mixed by vortexing. […] The tube of algae and MSM were incubated at room temperature with exposure to sunlight. […] Each dilution of MSM for each organism was set up in and analyzed in triplicate for each time interval measured. The samples were measured by percent transmittance on a UV/VIS spectrophotometer at wavelength 750 nm. The medium stock was tested for percent transmittance background levels at every time interval were measured. The lower percent transmittance indicated a higher growth factor.

Chlorella sorokiniana = test: Algal growth with MSM by percent transmittance; format: cell-based
Procedure: as §1, §2

SMILES: CS(C)(=O)=O [MSM, Methylsulfonylmethane]
- reduction of viability (Streptococcus Pneumonia): approximately 5%
- Log Growth of Lactobacillus acidophilus in Milk fortified with MSM ([1]; hour 0): 6.41 log
- Log Growth of Lactobacillus acidophilus in Milk fortified with MSM ([1]; hour 8): 8.67 log
- Log Growth of Lactobacillus acidophilus in Milk fortified with MSM ([1]; hour 24): 9.16 log
- Log Growth of Lactobacillus acidophilus in Milk fortified with MSM ([1]; hour 56): 8.56 log
- Log Growth of Lactobacillus acidophilus in Milk fortified with MSM ([1]; hour 96): 8.61 log
- Log Growth of Lactobacillus acidophilus in Milk fortified with MSM ([1]; hour 104): 8.92 log
- Average TCID50 [2]: 3.17 log10 and 4.67 log10 and 4.33 log10 and 4.08 log10 and 4.83 log10 and 5.00 log10 and 5.42 log10
- reduction of virus population [2]: more than 1.0 log10
- percent transmittance (Chlorella minutissima; MSM Percentage 0.5, day 0, 750 nm): 93.5%
- percent transmittance (Chlorella minutissima; MSM Percentage 0.5, day 1, 750 nm): 70.1%
- percent transmittance (Chlorella minutissima; MSM Percentage 0.5, day 2, 750 nm): 45.4%
- percent transmittance (Chlorella minutissima; MSM Percentage 0.5, day 3, 750 nm): 32.1%
- percent transmittance (Chlorella minutissima; MSM Percentage 0.5, day 4, 750 nm): 27.6%
- percent transmittance (Chlorella minutissima; MSM Percentage 0.5, day 5, 750 nm): 26.6%
- percent transmittance (Chlorella minutissima; MSM Percentage 0.5, day 6, 750 nm): 25.1%
- percent transmittance (Chlorella minutissima; MSM Percentage 0.5, day 7, 750 nm): 23.6%
- percent transmittance (Chlorella minutissima; MSM Percentage 0.5, day 8, 750 nm): 22.8%
- percent transmittance (Chlorella minutissima; MSM Percentage 0.5, day 9, 750 nm): 20.4%
- percent transmittance (Chlorella minutissima; MSM Percentage 0.5, day 10, 750 nm): 18.9%
- percent transmittance (Chlorella minutissima; MSM Percentage 1.0, day 0, 750 nm): 91.1%
- percent transmittance (Chlorella minutissima; MSM Percentage 1.0, day 1, 750 nm): 80.5%
- percent transmittance (Chlorella minutissima; MSM Percentage 1.0, day 2, 750 nm): 40.0%
- percent transmittance (Chlorella minutissima; MSM Percentage 1.0, day 3, 750 nm): 31.0%
- percent transmittance (Chlorella minutissima; MSM Percentage 1.0, day 4, 750 nm): 27.9%
- percent transmittance (Chlorella minutissima; MSM Percentage 1.0, day 5, 750 nm): 26.5%
- percent transmittance (Chlorella minutissima; MSM Percentage 1.0, day 6, 750 nm): 25.4%
- percent transmittance (Chlorella minutissima; MSM Percentage 1.0, day 7, 750 nm): 24.4%
- percent transmittance (Chlorella minutissima; MSM Percentage 1.0, day 8, 750 nm): 23.7%
- percent transmittance (Chlorella minutissima; MSM Percentage 1.0, day 9, 750 nm): 21.0%
- percent transmittance (Chlorella minutissima; MSM Percentage 1.0, day 10, 750 nm): 19.4%
- percent transmittance (Chlorella minutissima; MSM Percentage 2.5, day 0, 750 nm): 82.8%
- percent transmittance (Chlorella minutissima; MSM Percentage 2.5, day 1, 750 nm): 75.1%
- percent transmittance (Chlorella minutissima; MSM Percentage 2.5, day 2, 750 nm): 59.5%
- percent transmittance (Chlorella minutissima; MSM Percentage 2.5, day 3, 750 nm): 45.4%
- percent transmittance (Chlorella minutissima; MSM Percentage 2.5, day 4, 750 nm): 33.6%
- percent transmittance (Chlorella minutissima; MSM Percentage 2.5, day 5, 750 nm): 32.4%
- percent transmittance (Chlorella minutissima; MSM Percentage 2.5, day 6, 750 nm): 30.0%
- percent transmittance (Chlorella minutissima; MSM Percentage 2.5, day 7, 750 nm): 28.6%
- percent transmittance (Chlorella minutissima; MSM Percentage 2.5, day 8, 750 nm): 27.7%
- percent transmittance (Chlorella minutissima; MSM Percentage 2.5, day 9, 750 nm): 23.3%
- percent transmittance (Chlorella minutissima; MSM Percentage 2.5, day 10, 750 nm): 21.1%
- percent transmittance (Chlorella minutissima; MSM Percentage 5.0, day 0, 750 nm): 68.9%
- percent transmittance (Chlorella minutissima; MSM Percentage 5.0, day 1, 750 nm): 87.4%
- percent transmittance (Chlorella minutissima; MSM Percentage 5.0, day 2, 750 nm): 76.5%
- percent transmittance (Chlorella minutissima; MSM Percentage 5.0, day 3, 750 nm): 62.0%
- percent transmittance (Chlorella minutissima; MSM Percentage 5.0, day 4, 750 nm): 52.9%
- percent transmittance (Chlorella minutissima; MSM Percentage 5.0, day 5, 750 nm): 52.2%
- percent transmittance (Chlorella minutissima; MSM Percentage 5.0, day 6, 750 nm): 50.7%
- percent transmittance (Chlorella minutissima; MSM Percentage 5.0, day 7, 750 nm): 51.0%
- percent transmittance (Chlorella minutissima; MSM Percentage 5.0, day 8, 750 nm): 51.9%
- percent transmittance (Chlorella minutissima; MSM Percentage 5.0, day 9, 750 nm): 47.1%
- percent transmittance (Chlorella minutissima; MSM Percentage 5.0, day 10, 750 nm): 44.1%
- percent transmittance (Chlorella minutissima; MSM Percentage 10.0, day 0, 750 nm): 49.6%
- percent transmittance (Chlorella minutissima; MSM Percentage 10.0, day 1, 750 nm): 49.2%
- percent transmittance (Chlorella minutissima; MSM Percentage 10.0, day 2, 750 nm): 50.8%
- percent transmittance (Chlorella minutissima; MSM Percentage 10.0, day 3, 750 nm): 51.9%
- percent transmittance (Chlorella minutissima; MSM Percentage 10.0, day 4, 750 nm): 52.0%
- percent transmittance (Chlorella minutissima; MSM Percentage 10.0, day 5, 750 nm): 51.9%
- percent transmittance (Chlorella minutissima; MSM Percentage 10.0, day 6, 750 nm): 54.9%
- percent transmittance (Chlorella minutissima; MSM Percentage 10.0, day 7, 750 nm): 56.1%
- percent transmittance (Chlorella minutissima; MSM Percentage 10.0, day 8, 750 nm): 58.6%
- percent transmittance (Chlorella minutissima; MSM Percentage 10.0, day 9, 750 nm): 41.4%
- percent transmittance (Chlorella minutissima; MSM Percentage 10.0, day 10, 750 nm): 36.7%
- percent transmittance (Chlorella minutissima; MSM Percentage 20.0, day 0, 750 nm): 30.0%
- percent transmittance (Chlorella minutissima; MSM Percentage 20.0, day 1, 750 nm): 33.8%
- percent transmittance (Chlorella minutissima; MSM Percentage 20.0, day 2, 750 nm): 51.1%
- percent transmittance (Chlorella minutissima; MSM Percentage 20.0, day 3, 750 nm): 54.8%
- percent transmittance (Chlorella minutissima; MSM Percentage 20.0, day 4, 750 nm): 57.3%
- percent transmittance (Chlorella minutissima; MSM Percentage 20.0, day 5, 750 nm): 57.5%
- percent transmittance (Chlorella minutissima; MSM Percentage 20.0, day 6, 750 nm): 57.4%
- percent transmittance (Chlorella minutissima; MSM Percentage 20.0, day 7, 750 nm): 57.1%
- percent transmittance (Chlorella minutissima; MSM Percentage 20.0, day 8, 750 nm): 55.8%
- percent transmittance (Chlorella minutissima; MSM Percentage 20.0, day 9, 750 nm): 45.1%
- percent transmittance (Chlorella minutissima; MSM Percentage 20.0, day 10, 750 nm): 30.2%
- percent transmittance (Chlorella sorokiniana; MSM 0.5, day 0, 750 nm): 47.3%
- percent transmittance (Chlorella sorokiniana; MSM 0.5, day 1, 750 nm): 41.8%
- percent transmittance (Chlorella sorokiniana; MSM 0.5, day 2, 750 nm): 29.3%
- percent transmittance (Chlorella sorokiniana; MSM 0.5, day 3, 750 nm): 29.6%
- percent transmittance (Chlorella sorokiniana; MSM 0.5, day 4, 750 nm): 19.0%
- percent transmittance (Chlorella sorokiniana; MSM 0.5, day 5, 750 nm): 12.4%
- percent transmittance (Chlorella sorokiniana; MSM 0.5, day 6, 750 nm): 12.5%
- percent transmittance (Chlorella sorokiniana; MSM 0.5, day 7, 750 nm): 11.9%
- percent transmittance (Chlorella sorokiniana; MSM 0.5, day 8, 750 nm): 12.2%
- percent transmittance (Chlorella sorokiniana; MSM 0.5, day 9, 750 nm): 7.5%
- percent transmittance (Chlorella sorokiniana; MSM 0.5, day 10, 750 nm): 6.4%
- percent transmittance (Chlorella sorokiniana; MSM 1, day 0, 750 nm): 48.7%
- percent transmittance (Chlorella sorokiniana; MSM 1, day 1, 750 nm): 42.5%
- percent transmittance (Chlorella sorokiniana; MSM 1, day 2, 750 nm): 37.5%
- percent transmittance (Chlorella sorokiniana; MSM 1, day 3, 750 nm): 37.5%
- percent transmittance (Chlorella sorokiniana; MSM 1, day 4, 750 nm): 17.3%
- percent transmittance (Chlorella sorokiniana; MSM 1, day 5, 750 nm): 13.5%
- percent transmittance (Chlorella sorokiniana; MSM 1, day 6, 750 nm): 13.0%
- percent transmittance (Chlorella sorokiniana; MSM 1, day 7, 750 nm): 12.5%
- percent transmittance (Chlorella sorokiniana; MSM 1, day 8, 750 nm): 12.4%
- percent transmittance (Chlorella sorokiniana; MSM 1, day 9, 750 nm): 7.8%
- percent transmittance (Chlorella sorokiniana; MSM 1, day 10, 750 nm): 6.6%
- percent transmittance (Chlorella sorokiniana; MSM 2.5, day 0, 750 nm): 40.6%
- percent transmittance (Chlorella sorokiniana; MSM 2.5, day 1, 750 nm): 43.1%
- percent transmittance (Chlorella sorokiniana; MSM 2.5, day 2, 750 nm): 44.9%
- percent transmittance (Chlorella sorokiniana; MSM 2.5, day 3, 750 nm): 43.8%
- percent transmittance (Chlorella sorokiniana; MSM 2.5, day 4, 750 nm): 26.1%
- percent transmittance (Chlorella sorokiniana; MSM 2.5, day 5, 750 nm): 10.3%
- percent transmittance (Chlorella sorokiniana; MSM 2.5, day 6, 750 nm): 10.9%
- percent transmittance (Chlorella sorokiniana; MSM 2.5, day 7, 750 nm): 11.0%
- percent transmittance (Chlorella sorokiniana; MSM 2.5, day 8, 750 nm): 11.2%
- percent transmittance (Chlorella sorokiniana; MSM 2.5, day 9, 750 nm): 8.4%
- percent transmittance (Chlorella sorokiniana; MSM 2.5, day 10, 750 nm): 6.0%
- percent transmittance (Chlorella sorokiniana; MSM 5, day 0, 750 nm): 35.6%
- percent transmittance (Chlorella sorokiniana; MSM 5, day 1, 750 nm): 31.2%
- percent transmittance (Chlorella sorokiniana; MSM 5, day 2, 750 nm): 27.4%
- percent transmittance (Chlorella sorokiniana; MSM 5, day 3, 750 nm): 21.4%
- percent transmittance (Chlorella sorokiniana; MSM 5, day 4, 750 nm): 18.2%
- percent transmittance (Chlorella sorokiniana; MSM 5, day 5, 750 nm): 15.7%
- percent transmittance (Chlorella sorokiniana; MSM 5, day 6, 750 nm): 15.9%
- percent transmittance (Chlorella sorokiniana; MSM 5, day 7, 750 nm): 16.3%
- percent transmittance (Chlorella sorokiniana; MSM 5, day 8, 750 nm): 17.0%
- percent transmittance (Chlorella sorokiniana; MSM 5, day 9, 750 nm): 13.7%
- percent transmittance (Chlorella sorokiniana; MSM 5, day 10, 750 nm): 12.8%
- percent transmittance (Chlorella sorokiniana; MSM 10, day 0, 750 nm): 31.2%
- percent transmittance (Chlorella sorokiniana; MSM 10, day 1, 750 nm): 31.3%
- percent transmittance (Chlorella sorokiniana; MSM 10, day 2, 750 nm): 29.7%
- percent transmittance (Chlorella sorokiniana; MSM 10, day 3, 750 nm): 28.4%
- percent transmittance (Chlorella sorokiniana; MSM 10, day 4, 750 nm): 29.0%
- percent transmittance (Chlorella sorokiniana; MSM 10, day 5, 750 nm): 28.7%
- percent transmittance (Chlorella sorokiniana; MSM 10, day 6, 750 nm): 27.1%
- percent transmittance (Chlorella sorokiniana; MSM 10, day 7, 750 nm): 27.6%
- percent transmittance (Chlorella sorokiniana; MSM 10, day 8, 750 nm): 27.1%
- percent transmittance (Chlorella sorokiniana; MSM 10, day 9, 750 nm): 76.4%
- percent transmittance (Chlorella sorokiniana; MSM 10, day 10, 750 nm): 93.8%
- percent transmittance (Chlorella sorokiniana; MSM 20, day 0, 750 nm): 19.3%
- percent transmittance (Chlorella sorokiniana; MSM 20, day 1, 750 nm): 21.9%
- percent transmittance (Chlorella sorokiniana; MSM 20, day 2, 750 nm): 24.1%
- percent transmittance (Chlorella sorokiniana; MSM 20, day 3, 750 nm): 28.1%
- percent transmittance (Chlorella sorokiniana; MSM 20, day 4, 750 nm): 31.4%
- percent transmittance (Chlorella sorokiniana; MSM 20, day 5, 750 nm): 33.6%
- percent transmittance (Chlorella sorokiniana; MSM 20, day 6, 750 nm): 36.8%
- percent transmittance (Chlorella sorokiniana; MSM 20, day 7, 750 nm): 40.6%
- percent transmittance (Chlorella sorokiniana; MSM 20, day 8, 750 nm): 40.8%
- percent transmittance (Chlorella sorokiniana; MSM 20, day 9, 750 nm): 84.8%
- percent transmittance (Chlorella sorokiniana; MSM 20, day 10, 750 nm): 96.7%
